Reference: patent US4567270A, “Hexahydroindolizinones useful for treating cardiac arrhythmia, thrombotic disorders in mammals” (G. D. Searle & Co., priority 1984, dated 1986)
Where a name gives a salt, the structure may show the parent alone. Read-outs that look alike come from different tables or passages of the source. Blank lines part the entries; values can stand above or below the compound they belong to.

How the values were obtained:
[1] = test system: ADP-induced aggregation of blood platelets; experiment: Inhibition of ADP-induced platelet aggregation (optical platelet aggregometry in platelet-rich plasma); assay type: cell-based; conditions: rat platelet-rich plasma; one minute incubation, ADP usually 1-3 mcM
[2] = test system: ventricular arrhythmia induced by coronary artery ligation; experiment: Inhibition of ventricular arrhythmia induced by coronary ligation (two-stage ligation of left coronary artery); assay type: in vivo, dog; conditions: for minimal effective dose: Canis lupus familiaris, iv, read-out: Minimum Effective Dose
Method: Arrhythmias induced in this manner are considered similar in nature to those resulting from myocardial infarction in humans. […] The antiarrhythmic and antiaggregatory activities of the compounds of this invention illustrated in the examples were tested by the following methods.
Ventricular arrhythmia was induced by a two-stage ligation of the anterior descending branch of the left coronary artery in each of two or more dogs. Compounds were administered intraveneously using an initial 5 mg/kg body weight dose, with additional doses injected at intervals to a maximum of 20 mg/kg. A compound was rated active if it produced at least a 25% reduction in ectopic beats for a period of at least ten minutes in half or more of the dogs. The average minimum effective dose for each compound was calculated.
Compounds which produced 75-100% reduction in the ventricular arrhythmia at the initial 5 mg/kg dose were further tested using 1 mg/kg doses injected as before at five minute intervals. As before, a compound was rated active if it produced at least a 25% reduction in ectopic beats for a period of at least ten minutes in half or more of the dogs. The average minimum effective dose for each compound was calculated.

[3] = test system: ventricular arrhythmia induced by coronary artery ligation; conditions: dog; cited from earlier work
[4] = cited from earlier work; for toxic / side effects: Goodman and Gilman
[5] = test system: cardiac arrhythmia; conditions: cited from earlier work
[6] = dog, i.v., coronary ligation, average minimum dose giving at least 25% reduction in ectopic beats for at least ten minutes in half or more of the dogs

- IC50 [1]: 34 µM
SMILES: CC(C)N(CCC1(c2ccc(-c3ccccc3)cc2)CC2CCCCN2C1=O)C(C)C (stereo not drawn) [Example 10, 2-[2-[bis(1-methylethyl)amino]ethyl]-2-(4-phenylphenyl)hexahydro-3(2H)-indolizinone]
- minimal effective dose [2, 6]: 3 mg/kg

SMILES: CC(C)N(CCC(C(N)=O)(c1ccccc1)c1ccccn1)C(C)C (stereo not drawn) [Disopyramide]
- activity of known antiarrhythmics under coronary ligation conditions [3]: active under these conditions
- toxic / side effects [4]: anticholinergic effects
- effective refractory period of the atrium ([4]; at therapeutic levels): lengthens the effective refractory period of the atrium
- refractory period of the A-V node ([4]; at therapeutic levels): minimal effect on the refractory period of the A-V node
- sinus node recovery time ([4]; at therapeutic levels): shortens the sinus node recovery time
- Human dose (i.v.) ([5]; human, i.v., comment in Table 1): ca. 2 mpk
- activity in man [5]: active in man
- minimal effective dose [2]: 9.2 mg/kg

SMILES: C=C[C@H]1C[N@@]2CC[C@H]1C[C@@H]2[C@@H](O)c1ccnc2ccc(OC)cc12 [Quinidine]
- activity of known antiarrhythmics under coronary ligation conditions [3]: active under these conditions
- toxic / side effects [4]: exhibits several toxic reactions, such as cinchonism
- activity in man [5]: active in man

SMILES: CC(C)NCC(O)COc1cccc2ccccc12 (stereo not drawn) [Propranolol]
- toxic / side effects [4]: may induce significant hypotension, left ventricular failure, or even cardiovascular collapse

SMILES: CCN(CC)CCNC(=O)c1ccc(N)cc1 [Procainamide]
- activity of known antiarrhythmics under coronary ligation conditions [3]: active under these conditions
- activity in man [5]: active in man

SMILES: CC(C)N(CCC1(c2ccccc2)CC2CCCCN2C1=O)C(C)C (stereo not drawn) [Example 3, 2-[2-[bis(1-methylethyl)amino]ethyl]-hexahydro-2-phenyl-3(2H)-indolizinone]
- minimal effective dose [2, 6]: 5 mg/kg

- IC50 [1]: 88 µM
SMILES: CC(C)N(CCC1(c2ccccc2Cl)CC2CCCCN2C1=O)C(C)C (racemic) [Example 6, 2-[2-[bis(1-methylethyl)amino]ethyl]-2-(2-chlorophenyl)hexahydro-3(2H)-indolizinone, Racemate A]
- minimal effective dose [2, 6]: 3 mg/kg

SMILES: CC(C)N(CCC1(c2ccccc2Cl)CC2CCCCN2C1=O)C(C)C (racemic) [Example 7, 2-[2-[bis(1-methylethyl)-amino]ethyl]-2-(2-chlorophenyl)hexahydro-3(2H)-indolizinone, Racemate B]
- Minimum Effective Dose ([2]; dog, i.v., coronary ligation, average minimum dose giving at least 25% reduction in ectopic beats for at least ten minutes in half or more of the dogs, listed as Ex. 7): 5.0 mpk

- IC50 [1]: 81 µM
SMILES: CC(C)N(CCC1(c2ccccc2)CC2CCCCN2C1=O)C(C)C (stereo not drawn) [Example 11, 2-[2-[bis(1-methylethyl)amino]ethyl]hexahydro-2-phenyl-3(2H)-indolizinone hydrochloride hydrate]
